# Test results: PMC8125686, “Molecular Basis of Multiple Mitochondrial Dysfunctions Syndrome 2 Caused by CYS59TYR BOLA3 Mutation” (International Journal of Molecular Sciences, 2021)
# Target: T1, NFU1 (Homo sapiens, UniProt Q9UMS0)
# T1 sequence (Q9UMS0 10-254): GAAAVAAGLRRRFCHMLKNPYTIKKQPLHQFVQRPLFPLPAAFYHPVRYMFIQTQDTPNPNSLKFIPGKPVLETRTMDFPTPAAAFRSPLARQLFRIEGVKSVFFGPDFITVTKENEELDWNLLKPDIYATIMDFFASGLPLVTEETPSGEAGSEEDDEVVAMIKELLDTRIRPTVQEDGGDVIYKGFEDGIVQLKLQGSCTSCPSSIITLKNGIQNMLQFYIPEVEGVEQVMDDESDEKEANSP
# Test: 1H-15N HSQC NMR of cluster assembly on 15N-labelled apo NFU1
# Assay type: binding
# Settings: cluster donor [2Fe-2S] C59Y BOLA3-GLRX5 at 1:1; 5 mM DTT; 5 mM GSH; anaerobic
smiles,measurement,value
[S]12[Fe]3[S]4[Fe]1[S]1[Fe]2[S]3[Fe]41 [[4Fe–4S]2+ cluster],amount of [4Fe-4S] NFU1 formed in the final mixture,25%
